Measurements taken from ChEMBL document CHEMBL1144134, “New biphenyl compounds with DNA strand-scission activity from Clusia paralicola” (J Nat Prod, 1999).
In brackets after ≈: the same amount, converted by molar mass. Activity calls are given as the source filed them. The calls are words filed in the database; no cut-off is given here.

Assays:
[1] = Induction of DNA strand-scission activity assessed as relaxation of supercoiled DNA at 2.5 ug/ml; parameters: scale not given: the % may be the effect or the level left
KB = assay: Cytotoxicity against human KB cells; type: functional, cell-based

Row | Activity [1] | Compound | EC50 (KB)
1 | inactive | CC1(C)C=Cc2c(O)cc(-c3ccc(O)cc3)cc2O1 [CLUSIPARALICOLINE C] | 5.3 µg/mL (≈ 19.8 µM)
2 | 65% | CC(C)=CCC/C(C)=C/Cc1cc(O)c(O)cc1-c1cc(O)c2c(c1)OC(C)(C)C=C2 [CLUSIPARALICOLINE B] | 4.5 µg/mL (≈ 10.7 µM)
3 | 77% | CC(C)=CCC/C(C)=C/Cc1cc(O)c(O)cc1-c1cc(O)c(CC=C(C)C)c(O)c1 [CLUSIPARALICOLINE A] | 3.8 µg/mL (≈ 8.99 µM)
